Where two headings read alike, the source gives them in different places.
Assays:
BMPR2 = BMPR2 (Homo sapiens (Human), UniProt Q13873); test: KinomeScan; type: binding; conditions: 1 uM
BTK = BTK (Homo sapiens (Human), UniProt Q06187); test: KinomeScan; type: binding; conditions: 1 uM
CDC2L5 = CDC2L5 (Homo sapiens (Human), UniProt Q14004); test: KinomeScan; type: binding; conditions: 1 uM
Source text: The kinase selectivity of Compound 18 was further evaluated by KinomeScan.

CHEK1 = CHEK1 (Homo sapiens (Human), UniProt O14757); test: KinomeScan; type: binding; conditions: 1 uM
CSNK1G2 = CSNK1G2 (Homo sapiens (Human), UniProt P78368); test: KinomeScan; type: binding; conditions: 1 uM
DLK = DLK (Homo sapiens (Human), UniProt Q12852); test: KinomeScan; type: binding; conditions: 1 uM
EGFR = EGFR (Homo sapiens (Human), UniProt P00533); test: KinomeScan; type: binding; conditions: 1 uM
EGFR (L858R, T790M) = EGFR (L858R, T790M) (Homo sapiens (Human), UniProt P00533, L858R/T790M); test: KinomeScan; type: binding; conditions: 1 uM
[1] = molecular target: JAK1 (JH2domain-pseudokinase) (Homo sapiens (Human), UniProt P23458); test: KinomeScan; type: binding; conditions: 1 uM
LATS2 = LATS2 (Homo sapiens (Human), UniProt Q9NRM7); test: KinomeScan; type: binding; conditions: 1 uM
MST3 = MST3 (Homo sapiens (Human), UniProt Q9Y6E0); test: KinomeScan; type: binding; conditions: 1 uM
PIP5K1C = PIP5K1C (Homo sapiens (Human), UniProt O60331); test: KinomeScan; type: binding; conditions: 1 uM
PKMYT1 = PKMYT1 (Homo sapiens (Human), UniProt Q99640); test: KinomeScan; type: binding; conditions: 1 uM
[2] = molecular target: RSK4 (Kin.Dom.2-C-terminal) (Homo sapiens (Human), UniProt Q9UK32); test: KinomeScan; type: binding; conditions: 1 uM
WNK1 = WNK1 (Homo sapiens (Human), UniProt Q9H4A3); test: KinomeScan; type: binding; conditions: 1 uM
PKCγ = PKCγ (Homo sapiens (Human), UniProt P05129); test: Dundee profiling
MAP4K5 = MAP4K5 (Homo sapiens (Human), UniProt Q9Y4K4); test: Dundee profiling
PAK2 = PAK2 (Homo sapiens (Human), UniProt Q13177); test: Dundee profiling
p38b MAPK = p38b MAPK (Homo sapiens (Human), UniProt Q15759); test: Dundee profiling
TTBK2 = TTBK2 (Homo sapiens (Human), UniProt Q6IQ55); test: Dundee profiling
TIE2 = TIE2 (Homo sapiens (Human), UniProt Q02763); test: Dundee profiling
MNK1 = MNK1 (Homo sapiens (Human), UniProt Q9BUB5); test: Dundee profiling
Aurora B = Aurora B (Homo sapiens (Human), UniProt Q96GD4); test: Dundee profiling
NEK2a = NEK2a (Homo sapiens (Human), UniProt P51955); test: Dundee profiling
PIM1 = PIM1 (Homo sapiens (Human), UniProt P11309); test: Dundee profiling
ERK2 = ERK2 (Homo sapiens (Human), UniProt P28482); test: Dundee profiling
HER4 = HER4 (Homo sapiens (Human), UniProt Q15303); test: Dundee profiling
EPH-B3 = EPH-B3 (Homo sapiens (Human), UniProt P54753); test: Dundee profiling
CAMK1 = CAMK1 (Homo sapiens (Human), UniProt Q14012); test: Dundee profiling
PKCz = PKCz (Homo sapiens (Human), UniProt Q05513); test: Dundee profiling
CK1δ = CK1δ (Homo sapiens (Human), UniProt P48730); test: Dundee profiling
OSR1 = OSR1 (Homo sapiens (Human), UniProt O95747); test: Dundee profiling
CAMKKb = CAMKKb (Homo sapiens (Human), UniProt Q96RR4); test: Dundee profiling
IRR = IRR (Homo sapiens (Human), UniProt P14616); test: Dundee profiling
PHK = test: Dundee profiling
[3] = read-out: percent remaining enzymatic activity, I1, 1 μM
[4] = read-out: percent remaining enzymatic activity, I10
[5] = read-out: percent remaining enzymatic activity

PKCz, sequence (Q05513 whole entry): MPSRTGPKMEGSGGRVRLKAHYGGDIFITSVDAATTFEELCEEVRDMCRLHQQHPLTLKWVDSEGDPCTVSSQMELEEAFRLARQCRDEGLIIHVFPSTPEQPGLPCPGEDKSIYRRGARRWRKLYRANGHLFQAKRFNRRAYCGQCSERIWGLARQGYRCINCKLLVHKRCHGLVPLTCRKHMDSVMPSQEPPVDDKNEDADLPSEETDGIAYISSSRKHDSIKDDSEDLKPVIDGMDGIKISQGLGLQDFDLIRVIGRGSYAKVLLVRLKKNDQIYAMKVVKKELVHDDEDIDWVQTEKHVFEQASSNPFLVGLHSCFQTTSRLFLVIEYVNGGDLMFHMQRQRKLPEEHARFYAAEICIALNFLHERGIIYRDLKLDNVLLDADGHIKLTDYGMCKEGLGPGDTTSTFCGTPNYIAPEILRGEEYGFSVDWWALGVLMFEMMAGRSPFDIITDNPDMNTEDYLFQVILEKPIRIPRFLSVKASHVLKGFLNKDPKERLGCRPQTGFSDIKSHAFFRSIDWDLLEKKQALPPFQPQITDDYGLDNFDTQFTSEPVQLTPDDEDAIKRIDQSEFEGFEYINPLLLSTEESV
Aurora B, sequence (Q96GD4 whole entry): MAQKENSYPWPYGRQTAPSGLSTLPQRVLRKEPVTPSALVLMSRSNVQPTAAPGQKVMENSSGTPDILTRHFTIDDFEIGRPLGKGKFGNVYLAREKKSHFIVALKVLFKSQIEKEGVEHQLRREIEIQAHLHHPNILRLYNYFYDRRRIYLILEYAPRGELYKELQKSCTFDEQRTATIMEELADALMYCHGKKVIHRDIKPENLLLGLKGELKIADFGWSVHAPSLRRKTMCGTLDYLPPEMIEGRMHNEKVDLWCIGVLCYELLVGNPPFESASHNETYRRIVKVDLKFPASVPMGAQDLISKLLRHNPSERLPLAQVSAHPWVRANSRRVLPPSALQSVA
CK1δ, sequence (P48730 whole entry): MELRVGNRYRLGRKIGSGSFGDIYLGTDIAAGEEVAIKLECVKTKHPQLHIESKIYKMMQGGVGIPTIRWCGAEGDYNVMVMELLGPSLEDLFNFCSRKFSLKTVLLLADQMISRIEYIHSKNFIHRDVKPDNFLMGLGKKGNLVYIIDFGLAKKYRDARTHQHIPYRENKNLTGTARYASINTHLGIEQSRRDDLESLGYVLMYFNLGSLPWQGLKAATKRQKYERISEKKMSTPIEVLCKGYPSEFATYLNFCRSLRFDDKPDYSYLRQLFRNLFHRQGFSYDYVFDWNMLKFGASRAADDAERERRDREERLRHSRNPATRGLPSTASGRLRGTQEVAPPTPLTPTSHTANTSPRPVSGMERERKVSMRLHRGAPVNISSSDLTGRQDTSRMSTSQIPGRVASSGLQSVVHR
MNK1, sequence (Q9BUB5 whole entry, species assumed): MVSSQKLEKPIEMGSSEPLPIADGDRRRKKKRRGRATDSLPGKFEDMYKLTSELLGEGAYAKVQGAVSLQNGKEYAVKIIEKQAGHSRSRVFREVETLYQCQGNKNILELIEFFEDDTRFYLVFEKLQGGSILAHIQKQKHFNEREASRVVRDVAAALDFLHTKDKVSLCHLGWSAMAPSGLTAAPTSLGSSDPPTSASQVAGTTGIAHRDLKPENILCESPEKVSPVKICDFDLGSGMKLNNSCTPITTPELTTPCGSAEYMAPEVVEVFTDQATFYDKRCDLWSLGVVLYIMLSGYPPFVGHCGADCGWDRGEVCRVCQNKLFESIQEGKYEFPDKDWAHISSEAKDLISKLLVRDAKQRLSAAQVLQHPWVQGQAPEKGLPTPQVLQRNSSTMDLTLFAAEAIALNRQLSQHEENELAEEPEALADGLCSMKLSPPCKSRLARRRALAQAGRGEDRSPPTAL
NEK2a, sequence (P51955 whole entry, species assumed): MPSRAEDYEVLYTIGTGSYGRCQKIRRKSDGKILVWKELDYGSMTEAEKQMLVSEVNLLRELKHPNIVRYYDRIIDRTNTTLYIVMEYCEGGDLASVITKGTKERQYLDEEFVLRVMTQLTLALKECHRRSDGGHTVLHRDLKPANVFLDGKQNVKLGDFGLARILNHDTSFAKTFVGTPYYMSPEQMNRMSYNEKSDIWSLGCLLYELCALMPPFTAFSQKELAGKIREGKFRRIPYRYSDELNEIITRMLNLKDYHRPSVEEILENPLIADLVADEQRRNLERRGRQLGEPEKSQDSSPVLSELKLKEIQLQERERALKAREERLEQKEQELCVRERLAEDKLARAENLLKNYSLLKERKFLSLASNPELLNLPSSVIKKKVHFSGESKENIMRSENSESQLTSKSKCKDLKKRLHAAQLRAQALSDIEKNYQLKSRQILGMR
ERK2, sequence (P28482 whole entry, looked up, species assumed): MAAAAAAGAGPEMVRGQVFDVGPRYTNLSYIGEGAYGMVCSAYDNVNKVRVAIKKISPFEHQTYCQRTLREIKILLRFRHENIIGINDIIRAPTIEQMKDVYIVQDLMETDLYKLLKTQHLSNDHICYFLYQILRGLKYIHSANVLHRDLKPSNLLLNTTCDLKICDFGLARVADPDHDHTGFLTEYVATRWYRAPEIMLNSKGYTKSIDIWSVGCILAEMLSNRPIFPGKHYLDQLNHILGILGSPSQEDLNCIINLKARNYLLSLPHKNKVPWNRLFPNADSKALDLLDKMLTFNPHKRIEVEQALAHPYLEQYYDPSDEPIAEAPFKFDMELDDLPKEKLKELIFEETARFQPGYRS
EPH-B3, sequence (P54753 34-998, species assumed): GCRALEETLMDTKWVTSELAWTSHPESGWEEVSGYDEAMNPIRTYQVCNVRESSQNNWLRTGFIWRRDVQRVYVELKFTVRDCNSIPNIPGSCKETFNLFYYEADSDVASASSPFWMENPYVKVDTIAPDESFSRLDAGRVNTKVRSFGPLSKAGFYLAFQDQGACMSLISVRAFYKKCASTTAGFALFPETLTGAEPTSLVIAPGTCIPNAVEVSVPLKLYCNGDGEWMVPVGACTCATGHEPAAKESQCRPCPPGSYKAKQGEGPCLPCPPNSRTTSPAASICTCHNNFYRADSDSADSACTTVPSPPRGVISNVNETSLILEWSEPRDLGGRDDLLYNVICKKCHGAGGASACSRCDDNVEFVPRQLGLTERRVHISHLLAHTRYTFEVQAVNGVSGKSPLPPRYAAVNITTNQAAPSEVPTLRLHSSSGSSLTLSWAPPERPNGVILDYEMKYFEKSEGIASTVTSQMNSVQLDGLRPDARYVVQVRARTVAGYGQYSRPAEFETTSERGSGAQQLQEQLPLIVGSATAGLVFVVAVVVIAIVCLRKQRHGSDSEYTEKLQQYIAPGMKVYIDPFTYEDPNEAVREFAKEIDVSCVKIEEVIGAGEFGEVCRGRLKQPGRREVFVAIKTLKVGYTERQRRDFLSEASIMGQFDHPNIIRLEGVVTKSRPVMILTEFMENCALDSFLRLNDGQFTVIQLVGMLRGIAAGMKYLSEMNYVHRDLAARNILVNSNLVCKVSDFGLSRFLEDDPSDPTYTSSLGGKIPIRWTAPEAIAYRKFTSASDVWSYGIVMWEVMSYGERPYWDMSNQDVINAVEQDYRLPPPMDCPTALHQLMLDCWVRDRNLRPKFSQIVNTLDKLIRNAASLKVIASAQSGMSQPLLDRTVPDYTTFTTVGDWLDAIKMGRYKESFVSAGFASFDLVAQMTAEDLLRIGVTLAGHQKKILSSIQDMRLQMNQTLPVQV
CAMKKb, sequence (Q96RR4 whole entry, species assumed): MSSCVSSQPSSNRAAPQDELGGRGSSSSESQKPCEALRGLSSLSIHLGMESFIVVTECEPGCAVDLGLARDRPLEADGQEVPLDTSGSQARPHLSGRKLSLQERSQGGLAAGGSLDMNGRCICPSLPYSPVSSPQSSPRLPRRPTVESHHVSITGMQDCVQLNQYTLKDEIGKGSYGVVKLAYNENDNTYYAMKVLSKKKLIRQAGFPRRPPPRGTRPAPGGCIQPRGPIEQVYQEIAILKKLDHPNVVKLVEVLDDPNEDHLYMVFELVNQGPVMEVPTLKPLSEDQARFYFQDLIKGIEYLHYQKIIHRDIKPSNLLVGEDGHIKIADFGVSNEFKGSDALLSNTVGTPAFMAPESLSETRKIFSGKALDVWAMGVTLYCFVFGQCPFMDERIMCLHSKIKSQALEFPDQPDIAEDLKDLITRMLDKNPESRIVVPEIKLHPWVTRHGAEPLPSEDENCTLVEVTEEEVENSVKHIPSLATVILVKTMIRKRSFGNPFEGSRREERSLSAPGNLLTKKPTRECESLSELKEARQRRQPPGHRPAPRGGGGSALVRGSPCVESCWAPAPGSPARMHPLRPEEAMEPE
PAK2, sequence (Q13177 whole entry, looked up, species assumed): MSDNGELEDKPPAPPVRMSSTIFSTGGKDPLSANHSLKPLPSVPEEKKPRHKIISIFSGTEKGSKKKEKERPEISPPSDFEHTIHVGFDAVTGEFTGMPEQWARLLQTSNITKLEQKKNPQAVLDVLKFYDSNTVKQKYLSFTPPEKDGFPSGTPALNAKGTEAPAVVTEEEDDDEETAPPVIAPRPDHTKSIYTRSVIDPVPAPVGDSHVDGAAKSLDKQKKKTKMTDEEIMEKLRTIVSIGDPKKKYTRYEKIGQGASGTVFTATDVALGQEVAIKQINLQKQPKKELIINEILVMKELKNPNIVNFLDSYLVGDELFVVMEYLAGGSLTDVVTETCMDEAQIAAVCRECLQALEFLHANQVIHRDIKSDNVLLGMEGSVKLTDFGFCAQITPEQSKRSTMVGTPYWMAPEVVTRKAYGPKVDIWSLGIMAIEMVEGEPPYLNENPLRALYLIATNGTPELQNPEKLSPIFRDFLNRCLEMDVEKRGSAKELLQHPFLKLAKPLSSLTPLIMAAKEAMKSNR
JAK1 (JH2domain-pseudokinase), sequence (P23458 583-855): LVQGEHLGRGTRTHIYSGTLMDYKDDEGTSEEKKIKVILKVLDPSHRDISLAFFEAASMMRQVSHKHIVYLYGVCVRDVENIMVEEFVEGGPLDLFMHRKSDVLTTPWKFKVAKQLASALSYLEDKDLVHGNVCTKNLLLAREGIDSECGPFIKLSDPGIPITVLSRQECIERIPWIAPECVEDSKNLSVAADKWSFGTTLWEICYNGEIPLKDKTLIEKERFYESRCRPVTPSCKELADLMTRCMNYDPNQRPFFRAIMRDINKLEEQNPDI

CNc1nc(Nc2ccc(C(=O)N3CCOCC3)cc2OC)nc2[nH]cc(Cl)c12 [Compound 18, (4-((5-chloro-4-(methylamino)-7H-pyrrolo[2,3-d]pyrimidin-2-yl)amino)-3-methoxyphenyl)(morpholino)methanone]
KinomeScan value (BMPR2): 100
KinomeScan value (BTK): 100
KinomeScan value (CDC2L5): 100
KinomeScan value (CHEK1): 100
KinomeScan value (CSNK1G2): 100
KinomeScan value (DLK): 89
KinomeScan value (EGFR): 93
KinomeScan value (EGFR (L858R, T790M)): 100
KinomeScan value [1]: 99
KinomeScan value (LATS2): 93
KinomeScan value (MST3): 91
KinomeScan value (PIP5K1C): 100
KinomeScan value (PKMYT1): 100
KinomeScan value [2]: 90
KinomeScan value (WNK1): 95
remaining activity at 1 µM (PKCγ; [3]): 113%
remaining activity at 1 µM (PKCγ; [4]): 109%
remaining activity at 1 µM (MAP4K5; [3]): 110%
remaining activity at 1 µM (MAP4K5; [4]): 92%
remaining activity at 1 µM (PAK2; [3]): 110%
remaining activity at 1 µM (PAK2; [4]): 102%
remaining activity at 1 µM (p38b MAPK; [3]): 108%
remaining activity at 1 µM (p38b MAPK; [4]): 79%
percent remaining enzymatic activity (TTBK2; I10): 90%
remaining activity at 1 µM (TTBK2; [5]): 105%
remaining activity at 1 µM (TIE2; [3]): 104%
remaining activity at 1 µM (TIE2; [4]): 94%
remaining activity at 1 µM (MNK1; [3]): 102%
remaining activity at 1 µM (MNK1; [4]): 78%
remaining activity at 1 µM (Aurora B; [3]): 97%
remaining activity at 1 µM (Aurora B; [4]): 90%
remaining activity at 1 µM (NEK2a; [3]): 97%
remaining activity at 1 µM (NEK2a; [4]): 103%
remaining activity at 1 µM (PIM1; [3]): 95%
remaining activity at 1 µM (PIM1; [4]): 88%
remaining activity at 1 µM (ERK2; [3]): 94%
remaining activity at 1 µM (ERK2; [4]): 71%
remaining activity at 1 µM (HER4; [3]): 94%
remaining activity at 1 µM (HER4; [4]): 71%
percent remaining enzymatic activity (EPH-B3; I1, 1 μM): 92%
remaining activity at 1 µM (EPH-B3; [5]): 92%
remaining activity at 1 µM (CAMK1; [3]): 80%
remaining activity at 1 µM (CAMK1; [4]): 34%
remaining activity at 1 µM (PKCz; [3]): 76%
remaining activity at 1 µM (PKCz; [4]): 94%
remaining activity at 1 µM (CK1δ; [3]): 74%
remaining activity at 1 µM (CK1δ; [4]): 33%
remaining activity at 1 µM (OSR1; [3]): 61%
remaining activity at 1 µM (OSR1; [4]): 12%
remaining activity at 1 µM (CAMKKb; [3]): 50%
remaining activity at 1 µM (CAMKKb; [4]): 16%
remaining activity at 1 µM (IRR; [3]): 31%
remaining activity at 1 µM (IRR; [4]): 10%
percent remaining enzymatic activity (PHK; I1, 1 μM): 13%
percent remaining enzymatic activity (PHK; I10): 1%
